According to patent US9657110B2, “Polypeptides and use thereof” (ASTON UNIVERSITY, priority 2011, dated 2017):
One block for each molecule: values may come before it.

Legend:
HOB cells = test: Cell adhesion assay (attachment and spreading) on FN or TG-FN matrix with RGD or RAD peptide; assay type: cell-based, human; conditions: for effect of PKCα inhibitors on the compensatory effect of P1 peptide on RGD-induced loss of cell adhesion: Go6976 5 μM, GK21 8 μM, P1 100 ug/ml, FN; for effect on the compensatory effects of TG-FN on attachment and spreading in the presence of RGD: HOB cells on TG-FN, peptide 100-400 μg/ml, RGD 150 μg/ml
Protocol: The cell adhesion assay was carried out as previously described (Wang et al., 2010). Briefly, 96-well plastic tissue culture plates were coated with 5 μg/ml FN in 50 mM Tris-HCl, pH 7.4 at 4° C. overnight, after washing three times with 100 μl of 50 mM Tris-HCl, pH7.4, gplTG (20 μg/ml) in 2 mM EDTA in PBS, pH 7.4 was added to the wells for 1 h at 37° C. and the wells were washed three times with 50 mM Tris-HCl, pH7.4. Serum-starved (for 16 h) HOB cells with different treatments as introduced below in serum-free medium were detached by trypsinization and then treated with trypsin inhibitor. Cells were washed three times with serum free medium and seeded onto either FN or TG-FN matrix for 20-40 min. Peptides P1 or scrambled P1 (P1s), were added at concentrations between 100 μg/ml and 300 μg/ml. […] Attached cells were washed once with PBS, pH 7.4 and then fixed with 3.7% paraformaldehyde, further permeabilised with 0.1% (v/v) Triton® X-100 detergent in PBS, and co-stained with May-Grunwald and Giemsa stains as described previously (Jones et al., 1997). Images of stained cells from non-overlapping fields of view were photographed at 20× magnification and analyzed using the imaging analysis program Scion Image (National Institute of Health). Cell attachment and spreading were quantified, and the number of cells per image was assessed as described previously (Telci et al., 2008). Cell attachment on FN without peptide was considered as the control value for all the experiments unless stated otherwise. The mean number of attached cells form three wells was calculated and that of the control was considered as 100%. The mean number of attached cells (cell attachment) for each sample was then expressed as the percentage of cell attachment on FN. The mean percentage of attached cells that are spread (cell spreading) for each sample was determined separately, and the mean percentage of spread cells on FN control was expressed as 100%. The mean percentage of spread cells for each sample was then normalised against that of FN control Cell attachment on FN without the RGD peptide was considered as the control value for most of the experiments unless stated otherwise The mean number of attached cells from three wells was calculated and that of the control was considered as 100%. The mean number of attached cells (cell attachment) for each sample was then expressed as the percentage of cell attachment on FN. The mean percentage of attached cells that are spread (cell spreading) for each sample was determined separately, and the mean percentage of spread cells on the FN control was expressed as 100%. The mean percentage of spread cells for each sample was then normalised against that of FN control Cell pre-treatments included: PKCα inhibitor Go6976 (5 μM) or GK21 peptide (8 μM) for 1 h in serum-free medium prior to cell detachment; heparinase (15 mU/ml) or chondroitinase (15 mU/ml) to cells in suspension in serum free medium for 1 h. For the detection of the signalling molecules via Western blotting, the cell adhesion assay was performed in 60 mm Petri dishes and cells were collected into cell lysis buffer (Santa Cruz, UK) as described previously and pre-cleared by centrifugation at 300×g for 10 min. Western blotting was performed with specific anti-p-397 FAK or p-ERK1/2 antibodies. Membranes were stripped (Telci et al., 2008) and total FAK and ERK1/2 detected using anti-FAK and anti-ERK1/2 antibodies as listed in Table 2, while α-tubulin was used as an equal loading standard (Wang et al., 2011).
Cell adhesion and spreading assays were performed as described above in Example 1 method ‘Cell adhesion assay’

[1] = Binding of TG2 to heparin SEPHAROSE, elution with NaCl gradient; conditions: for binding to heparin SEPHAROSE (in words): compared with wt TG2; for NaCl concentration of optimum elution / major peak from heparin SEPHAROSE: lysate of HEK293T/17 cells, 0-1M NaCl gradient
Protocol: HEK cells, transiently transfected with wild-type and mutant TG2 were washed twice with ice cold PBS, pH 7.4 and lysed by the addition of 150 μl of 20 mM Tris-HCl pH 7.4, 10 mM EGTA, 2 mM EDTA, 1 mM NaF and 1 mM Na3VO4. After clarification by centrifugation, lysates were mixed with 450 μl of 50 mM Tris-HCl, 1 mM EDTA, 1 mM DTT, pH 7.5 and applied to a 5 ml Heparin SEPHAROSE® column (GE Healthcare) equilibrated in 50 mM Tris-HCl, 1 mM EDTA, 1 mM DTT pH 7.5 (buffer) at a flow rate of 1 ml/min. For the analysis of GTP-bound TG2 (closed conformation), lysates were pre-incubated for 1 h at room temperature with 0.5 mM GTP in 50 mM Tris-HCl, 2 mM MgCl2, 1 mM EDTA, 1 mM DTT pH 7.5. For the analysis of inhibitor-reacted TG2 (open conformation), lysates were incubated with 0.5 mM of irreversible inhibitor R281 (Griffin et al., 2008) and 10 mM CaCl2. The column was washed with 25 ml of buffer and protein was eluted with a linear gradient of increasing NaCl concentration (0-1M) in buffer. Fractions were assayed for TG2 activity and analysed for the presence of TG2 antigen by SDS-PAGE and Western blotting using CUB7402.

NIH 3T3 cells = test: Detection of TG2 at cell surface (biotinylation), in ECM and in culture medium of transfected cells; assay type: cell-based, mouse; conditions: transfected NIH 3T3 cells; for presence on the cell surface: biotinylation and Western blot, vs wild-type TG2
Protocol: Cell surface proteins were labelled by biotinylation as described previously (Wang et al., 2010). Briefly, cell monolayers were rinsed three times with ice-cold PBS pH 8.0 and labelled with 0.8 mM sulfo-NHS-LC-biotin dissolved in PBS pH 8.0 at 4° C. for 20 min. Cells were then washed with 50 mM Tris-HCl, pH 8.0 and lysed with 1% SDS at 4° C. in PBS pH8.0. Following denaturation at 95° C., cell lysates were clarified by centrifugation at 14,000×g at 20° C. and 200 μg of protein was incubated overnight at 4° C. with NEUTRAVIDIN® avidin protein-Agarose resin. After washing three times with PBS pH 8.0, the biotin-labelled proteins were dissolved in 2× Laemmli buffer separated by SDS-PAGE and subjected to Western blotting.
Following transfection, cells were incubated for 24 h with 10% (v/v) serum, which was replaced with 1% (v/v) serum and TG2 expression was allowed to proceed for a further 48 h. Proteins from 1 ml of medium were precipitated by the addition of ice cold 20% (w/v) trichloroacetic acid (TCA) to a final concentration of 10% (w/v) Pelleted proteins were then washed once with ice cold 10% (w/v) TCA, ethanol-acetone (1:1) and acetone, and resuspended in 2× Laemmli buffer (Sigma-Aldrich, UK) and analysed by SDS-PAGE and Western blot analysis using monoclonal anti-TG2 antibody (Cub7402). The remaining cells were detached with 2 mM EDTA in PBS, pH 7.4 and the ECM was extracted with 0.1% (w/v) deoxycholate in PBS, pH 7.4. The residual deoxycholate-insoluble ECM proteins were dissolved in 2× Laemmli buffer for further analysis by SDS-PAGE and Western blotting using Cub7402.

Molecule: Cn1c2ccccc2c2c3c(c4c5ccccc5n(CCC#N)c4c21)CNC3=O [Go6976, reference compound]
effect of PKCα inhibitors on the compensatory effect of P1 peptide on RGD-induced loss of cell adhesion (HOB cells): inhibition of the compensatory effect

Molecule: GENPIYKSAVTTVVNPIYEGKRQIKIWFQNRRMKWKK (listed as Homo sapiens) [GK21, reference compound]
effect of PKCα inhibitors on the compensatory effect of P1 peptide on RGD-induced loss of cell adhesion (HOB cells): inhibition of the compensatory effect

Molecule: GRDCSRRSS (listed as Homo sapiens) [fragment peptide derived from P1]
effect on the compensatory effects of TG-FN on attachment and spreading in the presence of RGD (HOB cells): able to inhibit the compensatory effects of TG-FN on attachment and spreading, in a dose-dependent manner

Molecule: NPKFLKNA (listed as Homo sapiens) [fragment peptide derived from P1]
effect on the compensatory effects of TG-FN on attachment and spreading in the presence of RGD (HOB cells): could not abrogate
concentration at which peptide was inhibitory to cell attachment and spreading (HOB cells; HOB cells, tested 100-400 μg/ml): above 200 μg/ml

B3: C277S: TG2 active site mutant, extended conformation (protein, UniProt P21980 2-687, looked up, variant C277S)
Protein-glutamine …: AEELVLERCDLELETNGRDHHTADLCREKLVVRRGQPFWLTLHFEGRNYEASVDSLTFSVVTGPAPSQEAGTKARFPLRDAVEEGDWTATVVDQQDCTLSLQLTTPANAPIGLYRLSLEASTGYQGSSFVLGHFILLFNAWCPADAVYLDSEEERQEYVLTQQGFIYQGSAKFIKNIPWNFGQFEDGILDICLILLDVNPKFLKNAGRDCSRRSSPVYVGRVVSGMVNCNDDQGVLLGRWDNNYGDGVSPMSWIGSVDILRRWKNHGCQRVKYGQSWVFAAVACTVLRCLGIPTRVVTNYNSAHDQNSNLLIEYFRNEFGEIQGDKSEMIWNFHCWVESWMTRPDLQPGYEGWQALDPTPQEKSEGTYCCGPVPVRAIKEGDLSTKYDAPFVFAEVNADVVDWIQQDDGSVHKSINRSLIVGLKISTKSVGRDEREDITHTYKYPEGSSEEREAFTRANHLNKLAEKEETGMAMRIRVGQSMNMGSDFDVFAHITNNTAEEYVCRLLLCARTVSYNGILGPECGTKYLLNLNLEPFSEKSVPLCILYEKYRDCLTESNLIKVRALLVEPVINSYLLAERDLYLENPEIKIRILGEPKQKRKLVAEVSLQNPLPVALEGCTFTVEGAGLTEEQKTVEIPDPVEAGEEVKVRMDLLPLHMGLHKLVVNFESDKLKAVKGFRNVIIGPA
NaCl concentration of optimum elution / major peak from heparin SEPHAROSE [1]: 250 mM NaCl

Further lines, with some results ahead:

NaCl concentration of optimum elution / major peak from heparin SEPHAROSE [1]: 60 mM NaCl
Molecule: HS2: TG2 mutant K205A, R209A (NPKFLKNAGRDCSRRSS)
binding to heparin SEPHAROSE (in words) [1]: lost the capability to bind with high affinity to heparin
presence in spent culture medium (NIH 3T3 cells; Western blot): detectable
presence in the ECM (NIH 3T3 cells; Western blot): not detectable
presence on the cell surface (NIH 3T3 cells): detected but in reduced amounts

NaCl concentration of major peak from heparin SEPHAROSE in the presence of GTP ([1]; 0.5 mM GTP, compact conformation): about 330 mM NaCl
NaCl concentration of major peak from heparin SEPHAROSE after reaction with inhibitor R281 ([1]; 0.5 mM R281, extended conformation): 250 mM NaCl
NaCl concentration of optimum elution / major peak from heparin SEPHAROSE [1]: 330 mM NaCl
B1: TG2: wild type human tissue transglutaminase expressed in transfected cells (protein)
chain: AEELVLERCDLELETNGRDHHTADLCREKLVVRRGQPFWLTLHFEGRNYEASVDSLTFSVVTGPAPSQEAGTKARFPLRDAVEEGDWTATVVDQQDCTLSLQLTTPANAPIGLYRLSLEASTGYQGSSFVLGHFILLFNAWCPADAVYLDSEEERQEYVLTQQGFIYQGSAKFIKNIPWNFGQFEDGILDICLILLDVNPKFLKNAGRDCSRRSSPVYVGRVVSGMVNCNDDQGVLLGRWDNNYGDGVSPMSWIGSVDILRRWKNHGCQRVKYGQCWVFAAVACTVLRCLGIPTRVVTNYNSAHDQNSNLLIEYFRNEFGEIQGDKSEMIWNFHCWVESWMTRPDLQPGYEGWQALDPTPQEKSEGTYCCGPVPVRAIKEGDLSTKYDAPFVFAEVNADVVDWIQQDDGSVHKSINRSLIVGLKISTKSVGRDEREDITHTYKYPEGSSEEREAFTRANHLNKLAEKEETGMAMRIRVGQSMNMGSDFDVFAHITNNTAEEYVCRLLLCARTVSYNGILGPECGTKYLLNLNLEPFSEKSVPLCILYEKYRDCLTESNLIKVRALLVEPVINSYLLAERDLYLENPEIKIRILGEPKQKRKLVAEVSLQNPLPVALEGCTFTVEGAGLTEEQKTVEIPDPVEAGEEVKVRMDLLPLHMGLHKLVVNFESDKLKAVKGFRNVIIGPA

binding to heparin SEPHAROSE (in words) [1]: bound heparin identically to TG2
B2: HS1: TG2 mutant K600A, R601A, K602A (protein, UniProt P21980 2-687, looked up, variant K600A R601A K602A)
Protein-glutamine …: AEELVLERCDLELETNGRDHHTADLCREKLVVRRGQPFWLTLHFEGRNYEASVDSLTFSVVTGPAPSQEAGTKARFPLRDAVEEGDWTATVVDQQDCTLSLQLTTPANAPIGLYRLSLEASTGYQGSSFVLGHFILLFNAWCPADAVYLDSEEERQEYVLTQQGFIYQGSAKFIKNIPWNFGQFEDGILDICLILLDVNPKFLKNAGRDCSRRSSPVYVGRVVSGMVNCNDDQGVLLGRWDNNYGDGVSPMSWIGSVDILRRWKNHGCQRVKYGQCWVFAAVACTVLRCLGIPTRVVTNYNSAHDQNSNLLIEYFRNEFGEIQGDKSEMIWNFHCWVESWMTRPDLQPGYEGWQALDPTPQEKSEGTYCCGPVPVRAIKEGDLSTKYDAPFVFAEVNADVVDWIQQDDGSVHKSINRSLIVGLKISTKSVGRDEREDITHTYKYPEGSSEEREAFTRANHLNKLAEKEETGMAMRIRVGQSMNMGSDFDVFAHITNNTAEEYVCRLLLCARTVSYNGILGPECGTKYLLNLNLEPFSEKSVPLCILYEKYRDCLTESNLIKVRALLVEPVINSYLLAERDLYLENPEIKIRILGEPKQAAALVAEVSLQNPLPVALEGCTFTVEGAGLTEEQKTVEIPDPVEAGEEVKVRMDLLPLHMGLHKLVVNFESDKLKAVKGFRNVIIGPA
presence on the cell surface (NIH 3T3 cells): greater levels
